Measured values: PubChem BioAssay AID1745844 (Carcinogenic Potency Database (CPDB), 2022)
Calls of active or inactive are those of the source. How the calls were made is not given here.

Tested on: rodent lifetime carcinogenesis bioassay, tumor incidence TD50
Experiment: carcinogenic potency in animals, long-term in vivo studies, CPDB compilation (AID 1745844)
Conditions: rat

With `COc1cc(OC)c2c3c(c(=O)oc2c1)CCC3=O` the carcinogen call (strain Fischer, males, by gavage, site: liver, lesion: one or several types, types not named, dosed 52 weeks, study length 74 weeks) was “negative (inactive)”.
For `CN(C)Nc1nc(-c2ccc([N+](=O)[O-])o2)cs1`, the TD50 (strain Sprague-Dawley, females, in feed, site: all sites, lesion: lymphoblastic lymphoma, dosed 46 weeks, study length 66 weeks) was 16.3 mg/kg/day, the TD50 (strain Sprague-Dawley, females, in feed, site: mammary gland, lesion: adenocarcinoma, dosed 46 weeks, study length 66 weeks) was 0.391 mg/kg/day and the carcinogen call (strain Sprague-Dawley, females, in feed, site: mammary gland, lesion: several types, types named in the paper, dosed 46 weeks, study length 66 weeks) was “positive”.
